Assays:
CDK5/p25 = CDK5/p25 (Homo sapiens, UniProt Q00535); experiment: CDK5 mobility shift assay (enzymatic activity of CDK5/p25); type: biochemical; conditions: for IC50: 0.154 nM CDK5/p25, FL peptide 29, 60 min at room temperature, read-out: CDK5 IC50; for CDK5/CDK2 specificity: fold more active against CDK5 than CDK2
Procedure, shortened: (§1)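 Carna CDK5/p25 (0.154 nM) or CDK2/CycA2 (1.25 nM) was preincubated 30 min with compound, ATP ([…] for CDK5; 37 μM for CDK2) and 10 mM MgCl2 in HEPES pH 7.5. The reaction was started with 1.5 μM FL peptide (29 for CDK5, 18 for CDK2) and run 60 min (CDK5) or 120 min (CDK2) at room temperature. Product was read by mobility shift, with IC50 from a 4-parameter fit.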

CDK2/CycA2 = CDK2/CycA2 (Homo sapiens, UniProt P24941); experiment: CDK2 mobility shift assay (enzymatic activity of CDK2/CycA2); type: biochemical; conditions: 1.25 nM CDK2/CycA2, 37 μM ATP, FL Peptide 18, 120 min at room temperature; read-out: CDK2 IC50
Procedure, shortened: as §1

CDK5/p25, sequence (Q00535 whole entry): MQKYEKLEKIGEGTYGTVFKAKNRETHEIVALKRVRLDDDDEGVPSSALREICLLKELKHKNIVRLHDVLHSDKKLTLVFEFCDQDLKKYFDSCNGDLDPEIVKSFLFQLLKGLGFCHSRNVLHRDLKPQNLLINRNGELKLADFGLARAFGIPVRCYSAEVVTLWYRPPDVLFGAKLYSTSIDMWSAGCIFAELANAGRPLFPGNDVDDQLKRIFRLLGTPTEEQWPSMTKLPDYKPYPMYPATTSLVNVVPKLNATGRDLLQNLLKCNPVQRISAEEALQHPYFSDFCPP
CDK5/p25, sequence (Q15078 99-307 partner limits assumed): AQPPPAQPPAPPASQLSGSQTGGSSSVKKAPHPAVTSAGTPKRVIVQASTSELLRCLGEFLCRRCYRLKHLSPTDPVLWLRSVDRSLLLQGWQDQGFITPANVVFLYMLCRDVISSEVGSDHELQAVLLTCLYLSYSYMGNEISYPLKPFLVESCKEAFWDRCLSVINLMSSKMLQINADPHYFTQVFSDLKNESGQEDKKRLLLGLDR

SMILES | IC50 (CDK5/p25) [µM] | IC50 (CDK2/CycA2) [µM] | CDK5/CDK2 specificity (CDK5/p25)
CN1CCC(C(C)(O)c2ccc3cnc(Nc4ccc(-c5noc(=O)[nH]5)cc4F)cc3n2)CC1 (stereo not drawn) [Compound 355] | < 0.01 | 0.01 to 0.1 | ++ (greater than 10-fold and less than or equal to 100-fold more active against CDK5 than CDK2)
O=C(O)CN(c1ccc2cnc(Nc3ccc(-n4ccc(CO)n4)cc3F)cc2n1)[C@H]1CC[C@H](O)CC1 [Compound 110, [[7-([2-fluoro-4-[3-(hydroxymethyl)pyrazol-1-yl]phenyl]amino)-1,6-naphthyridin-2-yl][(1r,4r)-4-hydroxycyclohexyl]amino]acetic acid] | 0.1 to 1 | > 1 | + (10-fold or less more active against CDK5 than CDK2)
CN1CCC(S(=O)(=O)c2ccc3cnc(Nc4ccc(-c5cncnc5)cc4F)cc3n2)CC1 [Compound 293] | < 0.01 | 0.1 to 1 | +++ (greater than 100-fold more active against CDK5 than CDK2)
CN1CCC(C(C)(O)c2ccc3cnc(Nc4ccc(-c5ccc(=O)n(C)c5)cc4F)cc3n2)CC1 (stereo not drawn) [Compound 351] | < 0.01 | 0.01 to 0.1 | ++ (greater than 10-fold and less than or equal to 100-fold more active against CDK5 than CDK2)
CN1CCC(S(=O)(=O)c2ccc3cnc(Nc4ccc(N5CCC(O)CC5)cc4)cc3n2)CC1 [Compound 304] | < 0.01 | 0.1 to 1 | ++ (greater than 10-fold and less than or equal to 100-fold more active against CDK5 than CDK2)
CN1CCC(S(=O)(=O)c2ccc3cnc(Nc4ccc(S(C)(=O)=O)cc4)cc3n2)CC1 [Compound 271] | < 0.01 | 0.01 to 0.1 | + (10-fold or less more active against CDK5 than CDK2)
CNC(=O)c1ccn(-c2ccc(Nc3cc4nc(S(=O)(=O)C5CCN(CC6COC6)CC5)ccc4cn3)c(F)c2)n1 [Compound 334] | < 0.01 | 0.1 to 1 | ++ (greater than 10-fold and less than or equal to 100-fold more active against CDK5 than CDK2)
Cc1cccc(Nc2cc3nc(C(C)(O)C4CCN(C)CC4)ccc3cn2)c1 (stereo not drawn) [Compound 341] | < 0.01 | 0.01 to 0.1 | ++ (greater than 10-fold and less than or equal to 100-fold more active against CDK5 than CDK2)
CN1CCC(S(=O)(=O)c2ccc3cnc(Nc4ccc5c(c4)C(=O)N(C)C5)cc3n2)CC1 [Compound 275] | 0.01 to 0.1 | 0.1 to 1 | ++ (greater than 10-fold and less than or equal to 100-fold more active against CDK5 than CDK2)
O=S(=O)(Cc1ccc2cnc(Nc3ccc(-n4ccc(CO)n4)cc3F)cc2n1)C1CCNCC1 [Compound 207, [1-[3-fluoro-4-([2-[(piperidine-4-sulfonyl)methyl]-1,6-naphthyridin-7-yl]amino)phenyl]pyrazol-3-yl]methanol] | 0.1 to 1 | > 1 | + (10-fold or less more active against CDK5 than CDK2)
CN1CCC(S(=O)(=O)c2ccc3cnc(Nc4ccc(N5CCS(=O)(=O)CC5)cc4)cc3n2)CC1 [Compound 296] | < 0.01 | 0.01 to 0.1 | ++ (greater than 10-fold and less than or equal to 100-fold more active against CDK5 than CDK2)
COc1cncc(Nc2cc3nc(S(=O)(=O)C4CCN(C)CC4)ccc3cn2)c1 [Compound 267] | 0.01 to 0.1 | 0.1 to 1 | ++ (greater than 10-fold and less than or equal to 100-fold more active against CDK5 than CDK2)
Cc1cc(C(=O)NC(C)C)ccc1Nc1cc2nc(S(=O)(=O)C3CCN(C)CC3)ccc2cn1 [Compound 265] | 0.01 to 0.1 | > 1 | +++ (greater than 100-fold more active against CDK5 than CDK2)
CN1CCC(S(=O)(=O)c2ccc3cnc(Nc4ccon4)cc3n2)CC1 [Compound 269] | 0.01 to 0.1 | 0.1 to 1 | + (10-fold or less more active against CDK5 than CDK2)
CN(C)C(=O)c1ccn(-c2ccc(Nc3cc4nc(S(=O)(=O)C5CCN(CC6COC6)CC5)ccc4cn3)c(F)c2)n1 [Compound 338] | < 0.01 | 0.1 to 1 | +++ (greater than 100-fold more active against CDK5 than CDK2)
CN1CCC(C(C)(O)c2ccc3cnc(Nc4ccc(S(C)(=O)=O)cc4)cc3n2)CC1 (stereo not drawn) [Compound 370] | < 0.01 | < 0.01 | + (10-fold or less more active against CDK5 than CDK2)
COc1cc(Nc2cc3nc(S(=O)(=O)C4CCN(C)CC4)ccc3cn2)ccc1NS(C)(=O)=O [Compound 259] | < 0.01 | 0.01 to 0.1 | ++ (greater than 10-fold and less than or equal to 100-fold more active against CDK5 than CDK2)

Second part, led by results:

IC50 (CDK5/p25) [µM] | IC50 (CDK2/CycA2) [µM] | SMILES | CDK5/CDK2 specificity (CDK5/p25)
0.01 to 0.1 | > 1 | CC(c1ccc2cnc(Nc3ccc(-n4ccc(CO)n4)cc3F)cc2n1)C1CCN(C)CC1 (single isomer, unassigned) [Compound 186, [1-[3-fluoro-4-([2-[1-(1-methylpiperidin-4-yl)ethyl]-1,6-naphthyridin-7-yl]amino)phenyl]pyrazol-3-yl]methanol] | ++ (greater than 10-fold and less than or equal to 100-fold more active against CDK5 than CDK2)
0.1 to 1 | 0.1 to 1 | CN1CCN(S(=O)(=O)c2ccc3cnc(Nc4ccc(-n5ccc(CO)n5)cc4F)cc3n2)CC1 [Compound 245, [1-(3-fluoro-4-[[2-(4-methylpiperazin-1-ylsulfonyl)-1,6-naphthyridin-7-yl]amino]phenyl)pyrazol-3-yl]methanol] | + (10-fold or less more active against CDK5 than CDK2)
< 0.01 | 0.01 to 0.1 | COC(=O)c1cnn(-c2ccc(Nc3cc4nc([C@](C)(O)C5CCN(C)CC5)ccc4cn3)c(F)c2)c1 [Compound 367, methyl 1-[3-fluoro-4-([2-[(1R)-1-hydroxy-1-(1-methylpiperidin-4-yl)ethyl]-1,6-naphthyridin-7-yl]amino)phenyl]pyrazole-4-carboxylate] | ++ (greater than 10-fold and less than or equal to 100-fold more active against CDK5 than CDK2)
< 0.01 | 0.01 to 0.1 | CN1CCC([C@@](C)(O)c2ccc3cnc(Nc4ccc(-c5cc[nH]n5)cc4F)cc3n2)CC1 [Compound 414, (1R)-1-(7-[[2-fluoro-4-(1H-pyrazol-3-yl)phenyl]amino]-1,6-naphthyridin-2-yl)-1-(1-methylpiperidin-4-yl)ethanol] | ++ (greater than 10-fold and less than or equal to 100-fold more active against CDK5 than CDK2)
0.01 to 0.1 | 0.1 to 1 | CCC(O)(c1ccc2cnc(Nc3ccc(-n4cccn4)cc3F)cc2n1)C1CCN(C)CC1 (stereo not drawn) [Compound 392] | ++ (greater than 10-fold and less than or equal to 100-fold more active against CDK5 than CDK2)
0.1 to 1 | > 1 | O=C(O)[C@H]1CNCC[C@@H]1Nc1ccc2cnc(Nc3ccc(-n4ccc(CO)n4)cc3F)cc2n1 [Compound 116, (3S,4S)-4-[[7-([2-fluoro-4-[3-(hydroxymethyl)pyrazol-1-yl]phenyl]amino)-1,6-naphthyridin-2-yl]amino]piperidine-3-carboxylic acid] | + (10-fold or less more active against CDK5 than CDK2)
0.1 to 1 | > 1 | CN1CCC(C(C)(O)c2ccc3cnc(Nc4ccc(-n5cccn5)cc4F)cc3n2)CC1 (single isomer, unassigned) [Compound 205, 1-(7-[[2-fluoro-4-(pyrazol-1-yl)phenyl]amino]-1,6-naphthyridin-2-yl)-1-(1-methylpiperidin-4-yl)ethanol] | ++ (greater than 10-fold and less than or equal to 100-fold more active against CDK5 than CDK2)
< 0.01 | 0.01 to 0.1 | CN1CCC(C(C)(O)c2ccc3cnc(Nc4ccc(-c5cncnc5)cc4F)cc3n2)CC1 (stereo not drawn) [Compound 342] | ++ (greater than 10-fold and less than or equal to 100-fold more active against CDK5 than CDK2)
0.01 to 0.1 | 0.1 to 1 | Fc1cc(-n2cccn2)ccc1Nc1cc2nc(CC3CCNCC3)ccc2cn1 [Compound 124, N-[2-fluoro-4-(pyrazol-1-yl)phenyl]-2-(piperidin-4-ylmethyl)-1,6-naphthyridin-7-amine] | ++ (greater than 10-fold and less than or equal to 100-fold more active against CDK5 than CDK2)
0.01 to 0.1 | > 1 | CN1CCC(C2(c3ccc4cnc(Nc5ccc(-n6ccc(CO)n6)cc5F)cc4n3)CC2)CC1 [Compound 312, [1-[3-fluoro-4-([2-[1-(1-methylpiperidin-4-yl)cyclopropyl]-1,6-naphthyridin-7-yl]amino)phenyl]pyrazol-3-yl]methanol] | ++ (greater than 10-fold and less than or equal to 100-fold more active against CDK5 than CDK2)
0.1 to 1 | > 1 | CN1CCC2(CC1)CC2c1ccc2cnc(Nc3ccc(-n4cccn4)cc3F)cc2n1 (stereo not drawn) [Compound 164, N-[2-fluoro-4-(pyrazol-1-yl)phenyl]-2-[6-methyl-6-azaspiro[2.5]octan-1-yl]-1,6-naphthyridin-7-amine] | ++ (greater than 10-fold and less than or equal to 100-fold more active against CDK5 than CDK2)
0.01 to 0.1 | 0.1 to 1 | CC(C)N1CCC(S(=O)(=O)c2ccc3cnc(Nc4ccc(-n5cccn5)cc4F)cc3n2)CC1 [Compound 380] | ++ (greater than 10-fold and less than or equal to 100-fold more active against CDK5 than CDK2)

Source: patent publication US20220389009A1, “SUBSTITUTED 1,6-NAPHTHYRIDINE INHIBITORS OF CDK5” (Goldfinch Bio, Inc., priority 2019, published 2022)
